One may read the melting point as the temperature of the solid-liquid transition.

Series [1] deals with SMN2 minigene mRNA (SMN2-A minigene) in HEK293H cells. Description: SMN2 minigene mRNA splicing RT-qPCR assay in cultured cells. Format: cell-based, human. Conditions: Homo sapiens, HEK293-H; concentration increasing full length SMN2 mRNA 1.5-fold relative to vehicle-treated cells; HEK293H cells with SMN2-A minigene, 24 hours, 7-point concentration data; read-out: EC1.5x for production of full length SMN2 mRNA. In a few lines: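 Stable SMN2-A minigene HEK293H; cpd 7-pt 3.16-fold series, 200× in DMSO, 24 h, 37 °C, n=2. Lysates → multiplex RT-qPCR (minigene FL + GAPDH), efficiency-corrected ΔΔCt vs vehicle. EC1.5× = 1.5-fold FL mRNA gain.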

The test system of series [2] is Smn protein in SMA patient fibroblast cells (GM03813). Description: Smn protein assay in cultured cells (SMN HTRF). Format: cell-based, human. Conditions: SMA patient fibroblast cells, 48 hours; for EC1.5x for Smn protein expression: 7-point concentration curve, SMN HTRF, concentration producing 1.5 times Smn protein vs DMSO vehicle control; for maximum fold (Fold) increase of Smn protein: 7-point concentration data, fold relative to vehicle control. In a few lines: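 Fibroblasts, SMA patient; 5,000 cells/well; 7-pt curve, 3.16-fold serial dilution; 48 h, 37 °C, 5% CO2; RIPA lysis 1 h RT; anti-SMN d2 + kryptate overnight RT; HTRF 665/620 nm; fold vs DMSO; EC1.5×, max fold.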
On the technique in general: Time-resolved FRET reads energy transfer from a long-lived donor to a nearby acceptor.

Where only a bound is given, the exact number is not on record here.

In turn, `Cc1cn2cc(-c3cc(=O)n4cc(N5CCNCC5)ccc4n3)nc2cn1` [Cpd 74, 2-(6-methylimidazo[1,2-a]pyrazin-2-yl)-7-(piperazin-1-yl)-4H-pyrido[1,2-a]pyrimidin-4-one] returned a melting point of 221 to 225 °C. Further, the EC (1.5-fold increase) in series [1] is less than 0.1 µM. Moreover, in series [2], the “EC1.5x for Smn protein expression” value is “*** (an EC1.5× between >0.3 μM and ≤1 μM is indicated by three stars (***))”; the “maximum fold (Fold) increase of Smn protein” value (from here on “maximum fold (Fold) increase”) is reported as “***** (a fold increase >1.65 is indicated by five stars (*****))”.

Consider `COc1ccc(-c2cc(=O)n3cc(N4CCNCC4)ccc3c2)cc1F` [Compound 103, 2-(3-fluoro-4-methoxyphenyl)-7-(piperazin-1-yl)-4H-quinolizin-4-one], for which the melting point lay within 200 to 202 °C. Moreover, the EC (1.5-fold increase) in series [1] is 0.3 to 1 µM. Moreover, the “maximum fold (Fold) increase” value in series [2] was “*** (a fold increase between >1.35 and ≤1.5 is indicated by three stars (***))”.

On to `Cc1cn2nc(-c3cc(=O)n4cc(N5CCC(N(C)C)CC5)cc(C)c4n3)cc2c(C)n1` [Compound 459, 7-[4-(dimethylamino)piperidin-1-yl]-2-(4,6-dimethylpyrazolo[1,5-a]pyrazin-2-yl)-9-methyl-4H-pyrido[1,2-a]pyrimidin-4-one], for which the melting point was in the range of 231 to 241 °C. The EC (1.5-fold increase) in series [1] is less than 0.1 µM. In series [2], the “maximum fold (Fold) increase” value was “*** (a fold increase between >1.35 and ≤1.5 is indicated by three stars (***))”.

Turning to `Cc1cn2nc(-c3cc(=O)n4cc(N5CCC(N6CCCCC6)CC5)ccc4n3)cc2c(C)n1` [Compound 426, 7-(1,4′-bipiperidin-1′-yl)-2-(4,6-dimethylpyrazolo[1,5-a]pyrazin-2-yl)-4H-pyrido[1,2-a]pyrimidin-4-one], the melting point fell in the range of 236 to 238 °C. Further, the EC (1.5-fold increase) in series [1] fell in the range of 0.3 to 1 µM. For the same molecule, in series [2], the “EC1.5x for Smn protein expression” value is “*** (an EC1.5× between >0.3 μM and ≤1 μM is indicated by three stars (***))”; the “maximum fold (Fold) increase” value is “***** (a fold increase >1.65 is indicated by five stars (*****))”.

On to `C[C@H]1CN(c2ccc3nc(-c4cc(F)cc(Cl)c4)cc(=O)n3c2)CCN1` [Compound 189, 2-(3-chloro-5-fluorophenyl)-7-[(3S)-3-methylpiperazin-1-yl]-4H-pyrido[1,2-a]pyrimidin-4-one], for which the melting point was in the range of 188 to 190 °C. For the same molecule, the EC (1.5-fold increase) in series [1] was 0.3 to 1 µM. Besides, in series [2], the “EC1.5x for Smn protein expression” value was “*** (an EC1.5× between >0.3 μM and ≤1 μM is indicated by three stars (***))”; the “maximum fold (Fold) increase” value is “**** (a fold increase between >1.5 and ≤1.65 is indicated by four stars (****))”.

`Cc1cn2ccc(-c3cc(=O)n4cc(N5CCNCC5)ccc4n3)cc2n1` [Compound 555, 2-(2-methylimidazo[1,2-a]pyridin-7-yl)-7-(piperazin-1-yl)-4H-pyrido[1,2-a]pyrimidin-4-one] displayed a melting point of 272 to 277 °C. The EC (1.5-fold increase) in series [1] lay in the range of 1 to 3 µM. Moreover, in series [2], the “EC1.5x for Smn protein expression” value is “** (an EC1.5× between >1 μM and ≤3 μM is indicated by two stars (**))”; the “maximum fold (Fold) increase” value is “*** (a fold increase between >1.35 and ≤1.5 is indicated by three stars (***))”.

Turning to `Cc1cn2cc(-c3cc(=O)n4cc(N5CCN(C)[C@@H](C)C5)ccc4n3)cc(Cl)c2n1` [Compound 331, 2-(8-chloro-2-methylimidazo[1,2-a]pyridin-6-yl)-7-[(3S)-3,4-dimethylpiperazin-1-yl]-4H-pyrido[1,2-a]pyrimidin-4-one], the melting point was in the range of 258 to 262 °C. Moreover, the EC (1.5-fold increase) in series [1] was less than 0.1 µM. Also, in series [2], the “EC1.5x for Smn protein expression” value is given as “**** (an EC1.5x≤0.3 μM is indicated by four stars (****))” and the “maximum fold (Fold) increase” value is on record as “***** (a fold increase >1.65 is indicated by five stars (*****))”.

As to `COc1ccc(-c2cc(=O)n3cc(C4=CCN(C5COC5)CC4)ccc3n2)cc1OC` [Compound 364, 2-(3,4-dimethoxyphenyl)-7-[1-(oxetan-3-yl)-1,2,3,6-tetrahydropyridin-4-yl]-4H-pyrido[1,2-a]pyrimidin-4-one], the melting point lay in the range of 178 to 180 °C. For the same molecule, in series [1], the EC (1.5-fold increase) is 1 to 3 µM. Also, in series [2], the “maximum fold (Fold) increase” value was “* (A maximum fold increase of ≤1.2 is indicated by one star (*))”.

`O=c1cc(-c2ccc(F)c(C(F)(F)F)c2)nc2ccc(N3CCNCC3)cn12` [Compound 77, 2-[4-fluoro-3-(trifluoromethyl)phenyl]-7-(piperazin-1-yl)-4H-pyrido[1,2-a]pyrimidin-4-one] registered a melting point of 214 to 217 °C. Also, the EC (1.5-fold increase) in series [1] lay in the range of 0.3 to 1 µM. Moreover, the “maximum fold (Fold) increase” value in series [2] is “** (a fold increase between >1.2 and ≤1.35 is indicated by two stars (**))”.

The molecule `Cc1cn2nc(-c3cc(=O)n4cc(C5=CCN(C)CC5)ccc4n3)cc2c(C)n1` [Compound 350, 2-(4,6-dimethylpyrazolo[1,5-a]pyrazin-2-yl)-7-(1-methyl-1,2,3,6-tetrahydropyridin-4-yl)-4H-pyrido[1,2-a]pyrimidin-4-one] gave a melting point of 193 to 197 °C. For the same molecule, the EC (1.5-fold increase) in series [1] was less than 0.1 µM. Besides, in series [2], the “EC1.5x for Smn protein expression” value is on record as “**** (an EC1.5x≤0.3 μM is indicated by four stars (****))” and the “maximum fold (Fold) increase” value is reported as “***** (a fold increase >1.65 is indicated by five stars (*****))”.

Turning to `Cc1cc2cc(-c3cc(=O)n4cc(N5CCC(N(C)C)CC5)ccc4n3)oc2c(C)n1` [Compound 528, 7-[4-(dimethylamino)piperidin-1-yl]-2-(5,7-dimethylfuro[2,3-c]pyridin-2-yl)-4H-pyrido[1,2-a]pyrimidin-4-one], the melting point was in the range of 200 to 202 °C. Moreover, the EC (1.5-fold increase) in series [1] is less than 0.1 µM. Further, in series [2], the “EC1.5x for Smn protein expression” value is listed as “**** (an EC1.5x≤0.3 μM is indicated by four stars (****))”; the “maximum fold (Fold) increase” value was “**** (a fold increase between >1.5 and ≤1.65 is indicated by four stars (****))”.

With `CCc1nc(C)cn2nc(-c3cc(=O)n4cc(C5=CCNCC5)ccc4n3)cc12` [Compound 763, 2-(4-ethyl-6-methylpyrazolo[1,5-a]pyrazin-2-yl)-7-(1,2,3,6-tetrahydropyridin-4-yl)-4H-pyrido[1,2-a]pyrimidin-4-one], the melting point lay within 287 to 289 °C. Further, the EC (1.5-fold increase) in series [1] is less than 0.1 µM. For the same molecule, in series [2], the “EC1.5x for Smn protein expression” value was “**** (an EC1.5x≤0.3 μM is indicated by four stars (****))” and the “maximum fold (Fold) increase” value is “***** (a fold increase >1.65 is indicated by five stars (*****))”.

`COc1ccc(-c2ccc3nc(N4CCC(N(C)C)CC4)cc(=O)n3c2)cc1F` [Compound 298, 2-[4-(dimethylamino)piperidin-1-yl]-7-(3-fluoro-4-methoxyphenyl)-4H-pyrido[1,2-a]pyrimidin-4-one]: the melting point lay within 157 to 160 °C. Besides, the EC (1.5-fold increase) in series [1] was 0.3 to 1 µM. Besides, the “maximum fold (Fold) increase” value in series [2] is “*** (a fold increase between >1.35 and ≤1.5 is indicated by three stars (***))”.

Take `CCCN1CC=C(c2ccc3nc(-c4ccc5c(cnn5C)c4)cc(=O)n3c2)CC1` [Compound 464, 2-(1-methyl-1H-indazol-5-yl)-7-(1-propyl-1,2,3,6-tetrahydropyridin-4-yl)-4H-pyrido[1,2-a]pyrimidin-4-one]: the melting point was in the range of 152 to 154 °C. Also, the EC (1.5-fold increase) in series [1] was 0.1 to 0.3 µM. For the same molecule, in series [2], the “EC1.5x for Smn protein expression” value is “** (an EC1.5× between >1 μM and ≤3 μM is indicated by two stars (**))”; the “maximum fold (Fold) increase” value was “**** (a fold increase between >1.5 and ≤1.65 is indicated by four stars (****))”.

In the case of `COc1ccc(-c2cc(=O)n3cc(N4CCCNCC4)ccc3n2)cc1` [Compound 5, 7-(1,4-diazepan-1-yl)-2-(4-methoxyphenyl)-4H-pyrido[1,2-a]pyrimidin-4-one], the melting point was 149 to 152 °C. Besides, the EC (1.5-fold increase) in series [1] was in the range of 3 to 30 µM. Besides, in series [2], the “maximum fold (Fold) increase” value is “* (A maximum fold increase of ≤1.2 is indicated by one star (*))”.

The molecule `CCc1nc(C)cn2nc(-c3cc(=O)n4cc(N5CCN(C)[C@H](C)C5)cc(C)c4n3)cc12` [Compound 785, 7-[(3R)-3,4-dimethylpiperazin-1-yl]-2-(4-ethyl-6-methylpyrazolo[1,5-a]pyrazin-2-yl)-9-methyl-4H-pyrido[1,2-a]pyrimidin-4-one] gave a melting point of 234 to 240 °C. Besides, in series [1], the EC (1.5-fold increase) was less than 0.1 µM. Besides, in series [2], the “EC1.5x for Smn protein expression” value is reported as “**** (an EC1.5x≤0.3 μM is indicated by four stars (****))” and the “maximum fold (Fold) increase” value is reported as “***** (a fold increase >1.65 is indicated by five stars (*****))”.

`CN(C)c1ccc(-c2cc(=O)n3cc(N4CCNCC4)cc(F)c3n2)cc1` [Compound 49, 2-[4-(dimethylamino)phenyl]-9-fluoro-7-(piperazin-1-yl)-4H-pyrido[1,2-a]pyrimidin-4-one] yielded a melting point of 216 to 218 °C. In addition, the EC (1.5-fold increase) in series [1] was 3 to 30 µM. For the same molecule, the “maximum fold (Fold) increase” value in series [2] is given as “* (A maximum fold increase of ≤1.2 is indicated by one star (*))”.

The values above are taken from US11753407B2, “Compounds for treating spinal muscular atrophy” (PTC Therapeutics, Inc., priority 2012, dated 2023).
